Reference: patent US11685710B2, “Cationic sulfonamide amino lipids and amphiphilic zwitterionic amino lipids” (The Board of Regents of the University of Texas System, priority 2016, dated 2023)

Assay: In vivo luciferase mRNA delivery (bioluminescence imaging)
Set-up: species or system mice
Conditions: Luc mRNA i.v., 24 h; athymic nude 1 mg/kg, C57BL/6 4 mg/kg, NSG 1 mg/kg
Protocol: In vivo luciferase mRNA delivery: All experiments were approved by the Institutional Animal Care & Use Committee (IACUC) of The University of Texas Southwestern Medical Center and were consistent with local, state and federal regulations as applicable. ZA3-Ep10 ZAL was formulated with in vivo formulation at 50 ZAL:38.5 cholesterol: 2 or 0.5 PEG-lipid mole ratio in the lipid mix, and 7.5:1 ZAL:mRNA weight ratio. Athymic Nude-Foxn1^nu mice (Harlan Laboratories) were injected with ZAL-mRNA NPs at a dose of 1 mg/kg via tail vein injection or intraperiotneal injection. After 24 h and 48 h the luciferase expression was evaluated by live animal bioluminescence imaging Animals were anesthetized under isofluorane, and D-luciferin monosodium hydrate (GoldBio) substrate was injected IP. […]
All experiments were approved by the Institutional Animal Care & Use Committee (IACUC) of The University of Texas Southwestern Medical Center and were consistent with local, state and federal regulations as applicable. […] After 24 h and 48 h the luciferase expression was evaluated by live animal bioluminescence imaging Animals were anesthetized under isofluorane, and D-luciferin monosodium hydrate (GoldBio) substrate was injected subcutaneously in the neck scruff. […]

Structure (SMILES): CCCCCCCCC(O)CN(CCC(=O)NCC[N+](C)(C)CCCS(=O)(=O)[O-])CCN(CCN(CC(O)CCCCCCCC)CC(O)CCCCCCCC)CCN(CC(O)CCCCCCCC)CC(O)CCCCCCCC (stereo not shown) [ZA3-Ep10]
- tissues with expression of luciferase: liver, lung and spleen
